Like-named read-outs stand apart in the source and are kept apart here.
Legend:
[1] = tested on: A375; test: Compounds cellular killing (Cell Titer-Glo, 6 days, 2D); assay type: cell-based, human; settings: for cell-killing activity compared with Dxd: A375
Procedure: (§1) The cell line was grown in a humidified 5% CO2 atmosphere at 37° C., and was regularly tested for the presence of mycoplasma with MycoAlert™ PLUS Mycoplasma Detection Kit (Lonza, LT07-710).
(§2) Incubation at 37° C., 5% CO2, overnight.
(§3) Adding the fresh growth-medium containing the varying concentrations of compounds, 50 ul/well.
(§4) Incubation at 37° C., 5% CO2, 6 days.
(§5) The cell viability detected by Cell Titer-Glo (Promega, G7573). Add 70 µL/well of CellTiter-Glo® Reagent in each well.
(§6) Allow the plates to incubate at room temperature for 10 minutes to stabilize luminescent signal.
(§7) Analyze with Microplate Reader.

[2] = tested on: Calu-6; test: as above; assay type: cell-based; settings: for cell-killing activity compared with Dxd: Calu-6
Procedure: as §1, §2, §3, §4, §5, §6, §7

[3] = tested on: HCC1569; test: Payload cellular killing, 2D; assay type: cell-based; settings: HCC1569, 2D (HER3 +++)
[4] = tested on: MDA-MB-453; test: Payload cellular killing, 2D; assay type: cell-based, human; settings: MDA-MB-453, 2D (HER3 +++)
Procedure: as §1

[5] = target: cathepsin B (Homo sapiens, UniProt P07858); test: Cathepsin B mediated rhodamine release; assay type: biochemical; settings: 150 nM, 0.3 unit activated cathepsin B, pH 5.5, 37° C., FIG. 21
Procedure: CTSB was activated by incubation at ambient temperature for 15 min with 30 mM dithiothreitol and 15 mM EDTA at PH5.5.
Reaction buffer preparation: 25 mM sodium acetate & 1 mM EDTA, PH5.5.
Adding 150 nM NAcCys-13 & NAcCys-14 & NAcCys-15 & NAcCys-16 & NAcCys-17 and 0.3 unit activated cathepsin B mixture according to the experiment template.
The reaction mixtures were incubated at 37° C. immediately in the reader, then start reading using the kinetic set-up described. (TECAN SPARK: excitation/emission: 485/520 nm) (120 cycles, every one min) Gain Manual: 77%
Data analysis by GraphPad Prism 9 is illustrated in FIG. 21.

[6] = ADC hydrophobicity evaluation by HIC (retention time of DAR8 species); assay type: physicochemical; settings: HIC method with isopropanol in the mobile phase (values marked *, Method 1)
From the text: ADC Hydrophobicity Evaluation
ADC with more hydrophobic property would appeared with later retention time from HIC (hydrophobicity interaction column) chromatography. In this invention, […].
The HIC retention time (HIC RT, here only HIC RT of DAR8 species is listed in the table) can be seen as a measure to evaluate ADC's hydrophobicity.

[7] = tested on: A549 (PTK7 low); test: Cellular killing on PTK7 cell lines (Cell-Titer-Glo, 7 days); assay type: cell-based; settings: Anti-proliferation
Procedure: (§8) The plates were incubated for 7 days at 37° C., 5% CO2. Next, 50 μL of Cell-Titer-Glo reagent was added to each well. The mixture was mixed on an orbital shaker for 10 mins to allow cell lysis. Then, the luminescent signal was measured using BMG PheraStar with the luminescent protocol. The inhibition of Ovcar3 and A549 cell lines is illustrated in FIG. 22 and FIG. 23, respectively.

[8] = tested on: Ovcar3 (PTK7 high); test: as above; assay type: cell-based; settings: Anti-proliferation
Procedure: as §8

[9] = Table 28, payload, A375, 2D (Her3 ++)
[10] = Table 29, payload, A375, 6d, 2D (Her3++)
[11] = Table 28, payload, Calu-6, 2D (HER3 neg.)
[12] = Table 29, payload, Clau6, 6d, 2D (Her3 neg)
[13] = Homo sapiens, Table 28, payload
[14] = Homo sapiens, Table 28, payload, read-out: Emax

CC[C@@]1(O)C(=O)OCc2c1cc1n(c2=O)Cc2c-1nc1cc(F)c(C)c3c1c2[C@@H](NC(=O)C(C)(F)CO)CC3 (single isomer, unassigned) [Isomer 1 of Compounds 68 & 69]
Emax ([1]; Homo sapiens, A-375, Table 29, payload, A375, 6d, 2D (Her3++), read-out: Emax): 99.9% | EC50 [1, 9]: 4.5 nM | EC50 [1, 10]: 4.5 nM | Emax ([2]; Homo sapiens, Calu-6, Table 28, payload, Calu-6, 2D (HER3 neg.), read-out: Emax): 98.5% | Emax ([2]; Homo sapiens, Calu-6, […], Table 29, payload, Clau6, 6d, 2D (Her3 neg), read-out: Emax): 98.5% | EC50 [2, 11]: 1.8 nM | EC50 [2, 12]: 1.8 nM | Emax ([3]; Homo sapiens, HCC1569, Table 28, payload, read-out: Emax): 92% | EC50 ([3]; Table 28, payload): 3.2 nM | EC50 ([4]; Homo sapiens, MDA-MB-453, Table 28, payload): 2.8 nM | Emax ([4]; Homo sapiens, MDA-MB-453, Table 28, payload, read-out: Emax): 97.9%

CCOC(=O)Nc1ccc2c(c1)Oc1cc(NC(=O)OCc3ccc(NC(=O)[C@H](CCCNC(N)=O)NC(=O)[C@@H](NC(=O)CCOCCOCCOCCN4C(=O)CC(SC[C@H](N)C(=O)O)C4=O)C(C)C)cc3)ccc1C21OC(=O)c2ccccc21 (some centres unmarked) [NAcCys-13, reference compound]
cathepsin B mediated rhodamine release rate, rank [5]: NAcCys-15˜NAcCys-13 (benchmark)>NAcCys-14>NAcCys-17

CCOC(=O)Nc1ccc2c(c1)Oc1cc(NC(=O)OCc3ccc(NC(=O)[C@H](CCCNC(N)=O)NC(=O)[C@@H](NC(=O)[C@H](CS(=O)(=O)O)NC(=O)CCOCCOCCOCCN4C(=O)CC(SC[C@H](NC(C)=O)C(=O)O)C4=O)C(C)C)cc3)ccc1C21OC(=O)c2ccccc21 (some centres unmarked) [NAcCys-15]
cathepsin B mediated rhodamine release rate, rank [5]: NAcCys-15˜NAcCys-13 (benchmark)>NAcCys-14>NAcCys-17

CCOC(=O)Nc1ccc2c(c1)Oc1cc(NC(=O)OCc3ccc(NC(=O)[C@H](CCCNC(N)=O)NC(=O)[C@@H](NC(=O)[C@H](CNS(N)(=O)=O)NC(=O)CCOCCOCCOCCN4C(=O)CC(SC[C@H](NC(C)=O)C(=O)O)C4=O)C(C)C)cc3)ccc1C21OC(=O)c2ccccc21 (some centres unmarked) [NAcCys-14]
cathepsin B mediated rhodamine release rate, rank [5]: NAcCys-15˜NAcCys-13 (benchmark)>NAcCys-14>NAcCys-17

CC[C@@]1(O)C(=O)OCc2c1cc1n(c2=O)Cc2c-1nc1cc(F)c(C)c3c1c2[C@@H](NC(=O)C(C)(F)CO)CC3 (single isomer, unassigned) [Example 69]
cell-killing activity compared with Dxd [1]: stronger cell-killing activity than Dxd | EC50 ([1]; Table 21, A375): 1.5 nM | Emax ([1]; Table 21, A375): 99.9% | cell-killing activity compared with Dxd [2]: stronger cell-killing activity than Dxd | EC50 ([2]; Table 21, Calu-6): 0.6 nM | Emax ([2]; Table 21, Calu-6): 98.2%

CC[C@@]1(O)C(=O)OCc2c1cc1n(c2=O)Cc2c-1nc1cc(F)c(C)c3c1c2[C@@H](NC(=O)C(C)(F)CO)CC3 (single isomer, unassigned) [Isomer 2 of Compounds 68 & 69]
EC50 [1, 9]: 1.5 nM | Emax [1, 9]: 99.9% | EC50 [1, 10]: 1.5 nM | Emax [1, 10]: 99.9% | EC50 [2, 11]: 0.6 nM | Emax [2, 11]: 98.2% | EC50 [2, 12]: 0.6 nM | Emax [2, 12]: 98.2% | EC50 ([3]; Table 28, payload): 0.7 nM | Emax ([3]; Table 28, payload): 91.6% | EC50 ([4]; Table 28, payload): 1.5 nM | Emax ([4]; Table 28, payload): 98.6%

CC[C@@]1(O)C(=O)OCc2c1cc1n(c2=O)Cc2c-1nc1cc(F)c(C)c3c1c2[C@@H](NC(=O)C(C)(F)CO)CC3 (single isomer, unassigned) [Example 68]
cell-killing activity compared with Dxd [1]: less potent than Dxd | Emax ([1]; Homo sapiens, A-375, Table 21, A375, read-out: Emax): 99.9% | EC50 ([1]; Table 21, A375): 4.5 nM | cell-killing activity compared with Dxd [2]: less potent than Dxd | Emax ([2]; Homo sapiens, Calu-6, Table 21, Calu-6, read-out: Emax): 98.5% | EC50 ([2]; Table 21, Calu-6): 1.8 nM

CCc1c2c(nc3ccc(O)cc13)-c1cc3c(c(=O)n1C2)COC(=O)[C@]3(O)CC [SN-38, reference compound]
EC50 ([1]; Homo sapiens, A-375, Table 28, payload, A375, 2D (Her3 ++)): 3.4 nM | Emax ([1]; Homo sapiens, A-375, Table 28, payload, A375, 2D (Her3 ++), read-out: Emax): 99.9% | EC50 ([2]; Homo sapiens, Calu-6, Table 28, payload, Calu-6, 2D (HER3 neg.)): 2.9 nM | Emax ([2]; Homo sapiens, Table 28, payload, Calu-6, 2D (HER3 neg.), read-out: Emax): 99.5% | EC50 [3, 13]: 5 nM | Emax [3, 14]: 95% | EC50 [4, 13]: 2.4 nM | Emax [4, 14]: 98.6%

B1: ADC1-4: antibody: Cofetuzumab (conjugate, chains of the INN, looked up)
VH: QVQLVQSGPEVKKPGASVKVSCKASGYTFTDYAVHWVRQAPGKRLEWIGVISTYNDYTYNNQDFKGRVTMTRDTSASTAYMELSRLRSEDTAVYYCARGNSYFYALDYWGQGTSVTVSS
VL: EIVLTQSPATLSLSPGERATLSCRASESVDSYGKSFMHWYQQKPGQAPRLLIYRASNLESGIPARFSGSGSGTDFTLTISSLEPEDFAVYYCQQSNEDPWTFGGGTKLEIK
modifications: drug conjugate
notes: antibody: Cofetuzumab
HIC DAR8 RT [6]: 14.50* min | Emax [7]: 20.12% | IC50 [7]: > 200 nM | Emax [8]: 93.45% | IC50 [8]: 0.32 nM

B2: ADC1-1: antibody: Cofetuzumab; "ADC Compounds used references" (conjugate, chains of the INN, looked up)
VH: QVQLVQSGPEVKKPGASVKVSCKASGYTFTDYAVHWVRQAPGKRLEWIGVISTYNDYTYNNQDFKGRVTMTRDTSASTAYMELSRLRSEDTAVYYCARGNSYFYALDYWGQGTSVTVSS
VL: EIVLTQSPATLSLSPGERATLSCRASESVDSYGKSFMHWYQQKPGQAPRLLIYRASNLESGIPARFSGSGSGTDFTLTISSLEPEDFAVYYCQQSNEDPWTFGGGTKLEIK
modifications: drug conjugate
HIC DAR8 RT [6]: 14.56* min | Emax [7]: 38.87% | IC50 [7]: > 200 nM | Emax [8]: 95.76% | IC50 [8]: 0.31 nM

B3: ADC1-2: antibody: Cofetuzumab (conjugate, chains of the INN, looked up)
VH: QVQLVQSGPEVKKPGASVKVSCKASGYTFTDYAVHWVRQAPGKRLEWIGVISTYNDYTYNNQDFKGRVTMTRDTSASTAYMELSRLRSEDTAVYYCARGNSYFYALDYWGQGTSVTVSS
VL: EIVLTQSPATLSLSPGERATLSCRASESVDSYGKSFMHWYQQKPGQAPRLLIYRASNLESGIPARFSGSGSGTDFTLTISSLEPEDFAVYYCQQSNEDPWTFGGGTKLEIK
modifications: drug conjugate
notes: antibody: Cofetuzumab
HIC DAR8 RT [6]: 14.67* min | Emax [7]: 34.22% | IC50 [7]: > 200 nM | Emax [8]: 93.47% | IC50 [8]: 0.23 nM

B4: ADC1-12: antibody: Cofetuzumab; "ADC Compounds used references" (conjugate, chains of the INN, looked up)
VH: QVQLVQSGPEVKKPGASVKVSCKASGYTFTDYAVHWVRQAPGKRLEWIGVISTYNDYTYNNQDFKGRVTMTRDTSASTAYMELSRLRSEDTAVYYCARGNSYFYALDYWGQGTSVTVSS
VL: EIVLTQSPATLSLSPGERATLSCRASESVDSYGKSFMHWYQQKPGQAPRLLIYRASNLESGIPARFSGSGSGTDFTLTISSLEPEDFAVYYCQQSNEDPWTFGGGTKLEIK
modifications: drug conjugate
HIC DAR8 RT [6]: 13.98* min | Emax [7]: 5.76% | IC50 [7]: > 200 nM | Emax [8]: 86.04% | IC50 [8]: 39.4 nM

B5: ADC1-11: antibody: Cofetuzumab (conjugate, chains of the INN, looked up)
VH: QVQLVQSGPEVKKPGASVKVSCKASGYTFTDYAVHWVRQAPGKRLEWIGVISTYNDYTYNNQDFKGRVTMTRDTSASTAYMELSRLRSEDTAVYYCARGNSYFYALDYWGQGTSVTVSS
VL: EIVLTQSPATLSLSPGERATLSCRASESVDSYGKSFMHWYQQKPGQAPRLLIYRASNLESGIPARFSGSGSGTDFTLTISSLEPEDFAVYYCQQSNEDPWTFGGGTKLEIK
modifications: drug conjugate
notes: antibody: Cofetuzumab
HIC DAR8 RT [6]: 14.77* min | Emax [7]: 26.44% | IC50 [7]: > 200 nM | Emax [8]: 100.9% | IC50 [8]: 2.1 nM

From US20250135026A1, “Antibody Drug Conjugates” (BeiGene Switzerland GmbH, priority 2021, published 2025)
